“And” between values parts separate entries of the source, which are not always exact repeats. Equal entries are not always repeated.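 Growth conditions: 96-well plates. Treatment: test compound, 48 hours, 5 concentrations. Analysis: linear interpolation between bracketing concentrations; unreached endpoints set to highest concentration. GI50 marks 50% less growth. At the TGI there is no net growth.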
Key:
Experiment in all cases: growth of human tumour cells (NCI), 48 h
MCF7 breast = test system: MCF7 breast
SNB-75 CNS = test system: SNB-75 CNS
NCI/ADR-RES ovarian = test system: NCI/ADR-RES ovarian
NCI-H23 lung = test system: NCI-H23 lung
SF-295 CNS = test system: SF-295 CNS
KM12 colon = test system: KM12 colon
PC-3 prostate = test system: PC-3 prostate
SN12C renal = test system: SN12C renal
SK-MEL-28 melanoma = test system: SK-MEL-28 melanoma
SF-539 CNS = test system: SF-539 CNS

Structure (SMILES)	TGI (MCF7 breast) [µM]	GI50 (SNB-75 CNS) [µM]	TGI (SNB-75 CNS)	GI50 (NCI/ADR-RES ovarian) [µM]	TGI (NCI/ADR-RES ovarian)	GI50 (NCI-H23 lung) [µM]	TGI (NCI-H23 lung)	GI50 (SF-295 CNS)	TGI (SF-295 CNS)	GI50 (KM12 colon)	TGI (KM12 colon)	GI50 (PC-3 prostate) [µM]	TGI (PC-3 prostate)	GI50 (SN12C renal) [µM]	TGI (SN12C renal)	GI50 (SK-MEL-28 melanoma) [µM]	TGI (SK-MEL-28 melanoma)	TGI (SF-539 CNS) [µM]	GI50 (MCF7 breast) [µM]	GI50 (SF-539 CNS) [µM]
O=[N+]([O-])c1ccc2c(N=Nc3c(O)ccc4ccccc34)c(O)cc(S(=O)(=O)O)c2c1	> 100	44.8	50 µM and > 100 µM	40.6	33.4 µM and > 100 µM	49.8	50 µM and > 100 µM	29.5 µM	50 µM and > 100 µM	49.9 µM	50 µM and > 100 µM	34.5	50 µM and > 100 µM	59	50 µM and > 100 µM	32.5	50 µM and > 100 µM	50.8	–	–
Cn1cnc([N+](=O)[O-])c1Sc1ncnc2c1ncn2C1OC(CO)C(O)C1O (stereo not given)	> 100	27.7	> 100 µM	4.84	> 100 µM	4.8	> 100 µM	2.95 µM	> 100 µM	6.34 µM	> 100 µM	8.66	> 100 µM	41.9	> 100 µM	72.2	> 100 µM	> 100	1.79	4.11
CCNCCNc1cc(-c2ccc(F)cc2)c(C#N)c2nc3ccccc3n12	13.5	1.81	4.39 µM	6.34	25.1 µM	13.7	29 µM	1.8 µM	3.79 µM	8.37 µM	21.1 µM	6.98	19.5 µM	3.89	14.4 µM	1.86	3.59 µM	3.24	3.31	1.7
COc1ccc(/C=C(\C#N)c2cc3ccccc3n2C)cc1	> 100	0.198	5.5 µM	0.319	> 28.7 µM	0.645	> 100 µM	0.355 µM	> 28.2 µM	0.503 µM	> 100 µM	0.448	> 100 µM	0.58	> 100 µM	4.52	> 100 µM	1.22	0.343	0.305
C[Se]C(=O)CC1=C2C=C(F)C=CC2/C(=C\c2ccc(S(C)=O)cc2)C1C (stereo not given)	10.4	< 0.01	< 0.036 µM	0.0776	3.96 µM	0.065	1.03 µM	< 0.0156 µM	0.0465 µM	0.0853 µM	3.25 µM	0.174	1.95 µM	0.0401	1.34 µM	0.0343	0.891 µM	0.0923	0.152	0.0371
O=[As](O)(O)c1ccc(Cc2ccc([As](=O)(O)O)cc2)cc1	1.19	–	3.12 µM	–	6.79 µM	–	2.26 µM	–	8.46 µM	–	5.44 µM	–	1.76 µM	–	2.08 µM	–	2.92 µM	0.542	–	–
Cn1ccnc1C(=O)/C=C/c1ccc(C(=O)Nc2nc3ccccc3[nH]2)cc1	> 25	1	15.9 µM	4.95	> 25 µM	3.34	> 25 µM	> 25 µM	> 25 µM	1.12 µM	> 25 µM	3.78	> 25 µM	9.93	> 25 µM	> 25	> 25 µM	18	0.9	2.7
N#Cc1nc(-c2ccccc2)oc1S(=O)(=O)N1CCOCC1	13.1	11.2	23.7 µM	14.8	84.2 µM	8.6	26 µM	38.2 µM	> 100 µM	23.6 µM	68 µM	5.79	20.8 µM	4.12	17.1 µM	2.46	6.5 µM	7.69	2.74	2.6
CC1OC(O)C(O)C(O)C1O (stereo not given)	> 100	–	> 100 µM	–	> 100 µM	–	> 100 µM	–	> 100 µM	–	> 100 µM	–	> 100 µM	–	> 100 µM	–	> 100 µM	> 100	–	–
FC(F)(F)c1ccc(-c2cnc(Br)nc2NC2CCCCCC2)cc1	> 100	> 100	> 100 µM	88.9	> 100 µM	32.9	> 100 µM	69.6 µM	> 100 µM	52 µM	> 100 µM	35.4	> 100 µM	> 100	> 100 µM	> 100	> 100 µM	> 100	19.7	> 100
C[C@H]1[C@@H](OCC(CO[C@H]2O[C@@H]3O[C@@]4(C)CC[C@H]5[C@H](C)CC[C@@H]([C@H]2C)[C@@]35OO4)=NOCC(=O)O)OC2O[C@@]3(C)CC[C@H]4[C@H](C)CC[C@@H]1[C@@]24OO3 (stereo not given in full)	17.6	0.698	15.4 µM	0.525	16.4 µM	< 0.0283	18.1 µM	0.1 µM	17.3 µM	< 0.0166 µM	13 µM	< 0.01	13.5 µM	0.0215	1.02 µM	0.756	20.6 µM	20.9	0.212	0.442
CC#CC(=O)N1CCC[C@H]1c1nc(-c2ccc(C(=O)Nc3ccccn3)cc2)c2c(N)nccn12	> 100	24.5	> 100 µM	> 100	> 100 µM	> 100	> 100 µM	> 86.1 µM	> 100 µM	> 72.2 µM	> 100 µM	> 84.8	> 100 µM	47.6	> 100 µM	47.3	> 100 µM	> 100	58	> 100
CC(=O)N1CC(F)(F)c2c(Sc3ncc(N4CCC5(CC4)COC[C@H]5N)nc3N)cccc21	55.6	3.19	38.2 µM	27.6	> 100 µM	3.35	> 100 µM	15.2 µM	50.7 µM	22.1 µM	> 100 µM	29.8	> 100 µM	25.8	> 100 µM	16.1	30.7 µM	23.3	15.8	11.2
COC(=O)CCC1=C(C)c2cc3[n-]c(cc4nc(cc5[n-]c(cc1n2)c(CCC(=O)OC)c5C)C=C4C)cc3C.[Cd+2]	11.9	6.62	33.8 µM	39.8	> 100 µM	3.03	16.7 µM	17.5 µM	77 µM	3.46 µM	13.6 µM	4.68	29.3 µM	19.1	58 µM	4.69	21.2 µM	15.2	2.66	4.39
COc1ccc(C(Nc2ncccn2)c2cc3c(cc2O)OCO3)cc1 (stereo not given)	77.3	–	22.7 µM	–	> 100 µM	–	35.3 µM	–	> 100 µM	–	37.8 µM	–	43.2 µM	–	37.8 µM	–	52.4 µM	33.1	–	–
Oc1ccc2ccccc2c1N=Nc1ccccc1	> 100	–	> 100 µM	–	> 100 µM	–	> 100 µM	39.6 µM and > 90.3 µM	> 100 µM	4.95 µM and 32.4 µM	> 100 µM	–	> 100 µM	–	> 100 µM	–	> 100 µM	> 100	–	–
COc1ccc([C@H]2O[C@@H](CO)C[C@]2(O)c2ccc(OC)cc2)cc1	> 100	> 100	> 100 µM	> 100	> 100 µM	> 100	> 100 µM	> 100 µM	> 100 µM	> 100 µM	> 100 µM	> 100	> 100 µM	> 100	> 100 µM	> 100	> 100 µM	> 100	> 100	> 100
COc1cc(C2C(C#N)=C(N)OC3=C2C(=O)c2ccccc2C3=O)cc(OC)c1OC (stereo not given)	16.1	0.293	25.1 µM	3.23	22.5 µM	0.713	4.34 µM	8.29 µM	24.8 µM	0.728 µM	> 100 µM	0.577	> 100 µM	1.3	11.1 µM	6.72	22.9 µM	4.56	0.422	0.344
Oc1ccccc1-n1c(-c2ccccc2)ccc1-c1ccccc1	16.5	4.46	21.5 µM	5.13	23.1 µM	4.79	33.3 µM	6.6 µM	21 µM	4.05 µM	19.3 µM	2.95	15.8 µM	3.62	16 µM	10.8	31.6 µM	31.9	5.08	15.2
O=C(/C=C/c1ccco1)Nc1ncc(Cc2ccc(F)cc2)s1	> 100	0.0547	0.706 µM	0.0445	4.02 µM	0.234	> 100 µM	0.0709 µM	> 100 µM	0.0486 µM	> 100 µM	0.0571	> 100 µM	0.189	> 100 µM	3.5	> 100 µM	0.379	0.0612	0.0686
COc1ccc(-c2ccc(-c3ccc(C(=N)N)cn3)s2)cc1Cl	3.29	1.45	2.85 µM	1.92	3.84 µM	1.83	3.72 µM	1.72 µM	3.27 µM	1.65 µM	3.04 µM	1.77	3.51 µM	1.69	3.39 µM	1.72	3.35 µM	3.11	1.52	1.64
CC(C)(C)CC(C)(C)c1ccc(OCCOCCSC(=N)N)cc1	3.22	1.37	3.85 µM	2.59	6.61 µM	2.85	7.38 µM	1.72 µM	3.27 µM	1.78 µM	3.33 µM	2.37	7.25 µM	1.81	3.62 µM	1.72	3.24 µM	3.31	1.51	1.81
CC(=O)Oc1cccc2c1C(=O)c1c(OC(C)=O)cc(C)cc1C2=O	> 100	–	> 100 µM	–	> 100 µM	–	> 100 µM	–	> 100 µM	–	> 100 µM	–	> 100 µM	–	> 100 µM	–	> 100 µM	> 100	–	–
O=C1c2cc(CCl)sc2C(=O)c2ccsc21	0.406	–	0.38 µM	–	0.468 µM	–	0.136 µM	–	0.245 µM	–	3.03 µM	–	0.839 µM	–	0.842 µM	–	0.149 µM	0.553	–	–
O=C1/C(=C/c2cccs2)CCC/C1=C\c1cccs1	> 100	16.9	81.4 µM	50.9	> 100 µM	> 83.8	> 100 µM	66.5 µM	> 100 µM	> 100 µM	> 100 µM	37.7	> 100 µM	> 100	> 100 µM	> 72.2	> 100 µM	> 100	0.529	59.2
CC1(C)OCN(c2ccc(Cl)cc2)Cn2c1nc1ccccc12	> 100	–	> 100 µM	–	> 100 µM	–	> 100 µM	–	> 100 µM	–	> 54.1 µM	–	> 100 µM	–	> 100 µM	–	> 100 µM	> 100	–	–
COc1ccc(/C=C2\N=C3SC=C(N)N3C2=O)cc1	6.29	0.757	7.61 µM	2.76	18.6 µM	1.67	8.47 µM	0.642 µM	14.2 µM	3.08 µM	15.6 µM	0.559	3.57 µM	1.57	7.35 µM	1.29	4.75 µM	4.07	0.459	1.5
